Experimental data taken from ChEMBL document CHEMBL1145199, “Design, synthesis, and SAR of a novel pyrazinone series with non-nucleoside HIV-1 reverse transcriptase inhibitory activity” (J Med Chem, 2005).

Assays:
Type in all cases: functional, organism-based
[1] = tested on: Human immunodeficiency virus 1; experiment: Inhibitory concentration against 100I mutant was determined
[2] = tested on: Human immunodeficiency virus 1; experiment: Inhibitory concentration against 103N mutant was determined
[3] = tested on: Human immunodeficiency virus 1; experiment: Inhibitory concentration against 181C mutant was determined
[4] = tested on: Human immunodeficiency virus 1; experiment: Inhibitory concentration against 188L mutant was determined
[5] = tested on: Human immunodeficiency virus 1; experiment: Inhibitory concentration against wild-type HIV-1 LAI Virus was determined
[6] = tested on: Human immunodeficiency virus 1; experiment: Inhibitory concentration against 188L mutant strain was determined
[7] = tested on: Human immunodeficiency virus 1; experiment: Inhibitory concentration against 100I and 103N mutant was determined
[8] = tested on: Human immunodeficiency virus 1; experiment: Inhibitory concentration against 103N and 181C mutant was determined
[9] = tested on: Human immunodeficiency virus 1; experiment: Inhibitory concentration against 100I and 103N mutant strains was determined
[10] = tested on: Human immunodeficiency virus 1; experiment: Inhibitory concentration against 103N and 181C mutant strains was determined
[11] = Human immunodeficiency virus 1, read-out: IC50

Row | Compound | IC50 [1, 11] | IC50 [2, 11] | IC50 [3, 11] | IC50 [4, 11] | IC50 [5, 11] | also measured
1 | Cc1cc(C)c(Sc2cn(C)c(=O)c(Nc3ccc(C#N)cc3)n2)c(C)c1 | > 10000 nM | 631 nM | 1000 nM | 631 nM | 16 nM | –
2 | Cc1cc(C)c(S(=O)(=O)c2nc(Nc3ccc(C#N)cc3)c(=O)n(C)c2C)c(C)c1 | 25 nM | 320 nM | 63 nM | – | 3 nM | IC50 [6]: 158 nM
3 | Cc1ccccc1Oc1nc(Nc2ccc(C#N)cc2)c(=O)n(C)c1C | 398 nM | 398 nM | 2510 nM | 2510 nM | 5 nM | –
4 | Cc1cc(C)c(Sc2cn(C)c(=O)c(Nc3ccc(Cl)cc3)n2)c(C)c1 | > 10000 nM | > 10000 nM | 6300 nM | 10000 nM | 79 nM | –
5 | Cc1ccc(Sc2cn(C)c(=O)c(Nc3ccc(C#N)cc3)n2)c(C)c1 | > 10000 nM | > 10000 nM | > 10000 nM | > 10000 nM | 5 nM | –
6 | Cc1cc(C)c(Oc2nc(Nc3ccc(C#N)cc3)c(=O)n(C)c2C)c(C)c1 | > 50 nM | > 158 nM | > 501 nM | > 200 nM | 5 nM | –
7 | Cc1ccc(Oc2cn(C)c(=O)c(Nc3ccc(F)cc3)n2)c(C)c1 | – | – | – | – | – | IC50 [1]: > 10 µmol; IC50 [2]: > 10 µmol; IC50 [3]: > 10 µmol; IC50 [4]: > 10 µmol; IC50 [5]: 1.258 µmol
8 | Cc1ccc(Oc2nc(Nc3ccc(C#N)cc3)c(=O)n(C)c2C)c(C)c1 | 25 nM | 32 nM | 63 nM | 158 nM | 3 nM | IC50 [7]: 158 nM; IC50 [8]: 1000 nM
9 | Cc1ccc(Oc2cn(C)c(=O)c(Nc3ccc(C(F)(F)F)cc3)n2)c(C)c1 | – | – | – | – | 501 nM | –
10 | Cc1ccccc1Oc1cn(Cc2ccccc2)c(=O)c(Nc2ccc(C#N)cc2)n1 | – | – | – | – | 316 nM | –
11 | Cc1ccc(Nc2nc(Oc3ccc(C)cc3C)cn(C)c2=O)cc1 | – | – | – | – | – | IC50 [5]: > 100 µmol
12 | Cc1ccccc1Oc1cn(C)c(=O)c(Nc2ccc(C#N)cc2)n1 | 1260 nM | 794 nM | 2510 nM | 2000 nM | 4 nM | –
13 | Cc1ccc(Sc2nc(Nc3ccc(Cl)cc3)c(=O)n(C)c2C)c(C)c1 | – | – | – | – | 501 nM | –
14 | Cc1ccc(Oc2nc(Nc3ccc(Cl)cc3)c(=O)n(C)c2C)c(C)c1 | 3980 nM | 3980 nM | > 10000 nM | > 10000 nM | 126 nM | –
15 | Cc1cc(C#N)cc(C)c1Oc1nc(Nc2ccc(C#N)cc2)c(=O)n(C)c1C | – | – | 25 nM | – | 6 nM | IC50 [7]: 158 nM; IC50 [8]: 63 nM
16 | Cc1ccccc1Sc1nc(Nc2ccc(C#N)cc2)c(=O)n(C)c1C | > 10000 nM | > 10000 nM | > 10000 nM | > 10000 nM | 40 nM | –
17 | Cc1ccc(Oc2cn(C)c(=O)c(Nc3ccc(C#N)cc3)n2)c(C)c1 | 316 nM | 32 nM | 159 nM | 398 nM | < 1 nM | –
18 | Cc1ccccc1Sc1cn(C)c(=O)c(Nc2ccc(C#N)cc2)n1 | > 10000 nM | > 10000 nM | > 10000 nM | > 10000 nM | 20 nM | –
19 | Cc1ccc(Oc2cn(C)c(=O)c(Nc3ccccc3)n2)c(C)c1 | – | – | – | – | – | IC50 [5]: 0.251 µmol
20 | Cc1ccc(Oc2cn(C)c(=O)c(Nc3ccc(Cl)cc3)n2)c(C)c1 | 5010 nM | 5010 nM | 5010 nM | > 10000 nM | 25 nM | –
21 | Cc1ccccc1Sc1nc(Nc2ccc(C#N)cc2)c(O)nc1C | 5010 nM | 631 nM | 5010 nM | 631 nM | 40 nM | –
22 | Cc1cc(C)c(S(=O)(=O)c2cn(C)c(=O)c(Nc3ccc(C#N)cc3)n2)c(C)c1 | > 10000 nM | > 10000 nM | 398 nM | > 10000 nM | 8 nM | –
23 | Cc1ccccc1Oc1nc(Nc2ccc(Cl)cc2)c(=O)n(C)c1C | 5010 nM | > 10000 nM | > 10000 nM | > 10000 nM | 100 nM | –
24 | Cc1ccc(Oc2cn(Cc3ccccc3)c(=O)c(Nc3ccc(C#N)cc3)n2)c(C)c1 | 631 nM | 631 nM | 1580 nM | > 10000 nM | 32 nM | –
25 | O=C1Nc2ccc(Cl)cc2[C@@](C#CC2CC2)(C(F)(F)F)O1 [EFAVIRENZ] | 40 nM | 40 nM | 2 nM | – | – | IC50 [9]: > 10000 nM; IC50 [10]: 40 nM
